For one assay, the system named is IL-1β. Kind of assay: PBMC assay: inhibition of IL-1β release after LPS stimulation (MSD). The following applies: human PBMCs, 100 ng/ml LPS for 6 hrs, MSD, 96 well plates, read-out: IL1β IC50. The class given is cell-based. An outline of the steps:
(§1)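 Cryopreserved human PBMCs (7.5×10^4/well) in RPMI/10% FBS were preincubated with serially diluted compound for 30 min at 37 °C, then stimulated with 100 ng/ml LPS for 6 h. Supernatant IL-1β and TNF measured by MSD. IC50 derived for IL-1β, EC50 for TNF.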

In the next assay the test system is TNF. Description: PBMC assay: TNF cytokine levels after LPS stimulation (MSD). The class given is cell-based. The following applies: human PBMCs, 100 ng/ml LPS for 6 hrs. An outline of the steps:
as §1

Read-outs that look alike come from different tables or passages of the source.

By IC50 is commonly meant the point on the concentration scale where inhibition reaches its midpoint. The term EC50 denotes the concentration that produces a half-maximal response. `CC(C)c1nn(CC(=O)Nc2ccc3nncn3n2)c(=O)c2ccc(C3CC3)cc12` [X-1008]: the IC50 with IL-1β (Homo sapiens, PBMC, 6 h) is 33 nM. The EC50 with TNF (Homo sapiens, PBMC, 6 h) was 2610 nM.
For `CC(C)c1ccc2c(=O)n(CC(=O)Nc3ccc4nncn4n3)nc(C(C)C)c2c1` [X-1009] the same measures were 45 nM and 2830 nM.
The matching figures for `CC(C)c1nn(CC(=O)Nc2ccc3nncn3n2)c(=O)c2ccc(C(C)(C)F)cc12` [X-1010]: 17 nM and 3110 nM.
For `CC(C)c1nn(CC(=O)Nc2ccc3nccn3n2)c(=O)c2ccc(C(C)(C)F)cc12` [X-1011], the IC50 in the assay on IL-1β (Homo sapiens, PBMC, 6 h) is 89 nM. Further, the EC50 in the assay on TNF (Homo sapiens, PBMC, 6 h) is 7560 nM.
The matching figures for `CC(C)c1nn(CC(=O)Nc2ccc3nncn3n2)c(=O)c2ccc(C3CCC3)cc12` [X-1012]: 180 nM and 1080 nM.
As for `CCc1nn(CC(=O)Nc2c(-c3ccnc(OC)c3)ccc3c2CCC3)c(=O)c2ccc(Br)cc12` [X-1013], the half-maximal inhibitory concentration (IC50) in the assay on IL-1β (Homo sapiens, PBMC, 6 h) was over 20000 nM. Moreover, in the assay with TNF (Homo sapiens, PBMC, 6 h), the EC50 was over 20000 nM.
`CC(=O)c1nn(CC(=O)Nc2ccn(C(C)C)n2)c(=O)c2ccc(Br)cc12` [X-1014, 2-(4-acetyl-6-bromo-1-oxophthalazin-2(1H)-yl)-N-(1-isopropyl-1H-pyrazol-3-yl)acetamide]: the IC50 in the assay on IL-1β (Homo sapiens, PBMC, 6 h) was over 20000 nM. Also, the EC50 in the assay on TNF (Homo sapiens, PBMC, 6 h) was over 20000 nM.
For `COC(C)c1nn(CC(=O)Nc2ccnnc2)c(=O)c2ccc(Br)cc12` (stereo not drawn) [X-1015], the IC50 with IL-1β (Homo sapiens, PBMC, 6 h) is 2130 nM. The compound also displayed an EC50 in the assay on TNF (Homo sapiens, PBMC, 6 h) of over 20000 nM.
As for `COC(C)c1nn(CC(=O)Nc2ccncn2)c(=O)c2ccc(Br)cc12` (stereo not drawn) [X-1016], the IC50 in the assay on IL-1β (Homo sapiens, PBMC, 6 h) came out at 819 nM. The compound also had an EC50 with TNF (Homo sapiens, PBMC, 6 h) of over 20000 nM.
For `COC(C)c1nn(CC(=O)Nc2ccc3nncn3c2)c(=O)c2ccc(Br)cc12` (stereo not drawn) [X-1017] the same measures were 506 nM and over 20000 nM.
The matching figures for `COC(C)c1nn(CC(=O)N[C@H]2C[C@@](C)(O)C2)c(=O)c2ccc(Br)cc12` (stereo partly drawn) [X-1018]: 832 nM and over 20000 nM.
For `O=C(Cn1nc(C(F)F)c2cc(Br)ccc2c1=O)Nc1ccc2nncn2c1` [X-1019], the IC50 with IL-1β (Homo sapiens, PBMC, 6 h) was determined as 183 nM. Besides, the EC50 with TNF (Homo sapiens, PBMC, 6 h) is over 20000 nM.
For the compound `C[C@]1(O)C[C@@H](NC(=O)Cn2nc(C(F)F)c3cc(Br)ccc3c2=O)C1` [X-1020], in the assay with IL-1β (Homo sapiens, PBMC, 6 h), the IC50 turned out to be 133 nM. Further, the EC50 with TNF (Homo sapiens, PBMC, 6 h) is over 20000 nM.
Regarding `Cn1nc(NC(=O)Cn2nc(C(F)F)c3cc(Br)ccc3c2=O)ccc1=O` [X-1021], in the assay on IL-1β (Homo sapiens, PBMC, 6 h), the IC50 came out at 437 nM. In the assay on TNF (Homo sapiens, PBMC, 6 h), this compound returned an EC50 of over 20000 nM.
With `C[C@]1(O)C[C@@H](NC(=O)Cn2nc(C3CC3)c3cc(Br)ccc3c2=O)C1` [X-1022], the IC50 in the assay with IL-1β (Homo sapiens, PBMC, 6 h) is 57 nM. Also, the EC50 in the assay on TNF (Homo sapiens, PBMC, 6 h) is over 20000 nM.
On to `O=C(Cn1nc(C2CC2)c2cc(Br)ccc2c1=O)Nc1ccc2nncn2c1` [X-1023], for which the half-inhibitory concentration (IC50) in the assay with IL-1β (Homo sapiens, PBMC, 6 h) is 101 nM. In the assay on TNF (Homo sapiens, PBMC, 6 h), this compound returned an EC50 of over 20000 nM.
With `Cn1nc(NC(=O)Cn2nc(C3CC3)c3cc(Br)ccc3c2=O)ccc1=O` [X-1024], in the assay with IL-1β (Homo sapiens, PBMC, 6 h), the IC50 was 497 nM. For the same compound, in the assay with TNF (Homo sapiens, PBMC, 6 h), the 50% effective concentration (EC50) was over 20000 nM.
For `COc1ccc2c(=O)n(CC(=O)Nc3ccncn3)nc(C(C)C)c2c1` [X-1025], the IC50 in the assay with IL-1β worked out at 2520 nM. This compound returned an EC50 with TNF of over 20000 nM.
Consider `CCc1nn(CC(=O)Nc2ccn(C(C)C)n2)c(=O)c2ccc(C3CC3)cc12` [X-1026], for which the IC50 in the assay on IL-1β (Homo sapiens, PBMC, 6 h) was over 20000 nM. This compound also displayed an EC50 with TNF (Homo sapiens, PBMC, 6 h) of over 20000 nM.
In the case of `CC(C)c1nn(CC(=O)N[C@H]2C[C@@](C)(O)C2)c(=O)c2ccc(Cl)cc12` [X-1027], the IC50 in the assay on IL-1β (Homo sapiens, PBMC, 6 h) amounted to 60 nM. Moreover, the EC50 in the assay on TNF (Homo sapiens, PBMC, 6 h) is over 20000 nM.
For `CC(C)c1nn(CC(=O)Nc2ccncn2)c(=O)c2ccc(Cl)cc12` [X-1028] the same measures were 128 nM and over 20000 nM.
Take `CC(C)c1nn(CC(=O)Nc2ccc3nncn3c2)c(=O)c2ccc(Cl)cc12` [X-1029]: the half-maximal inhibitory concentration (IC50) with IL-1β (Homo sapiens, PBMC, 6 h) turned out to be 41 nM. The EC50 with TNF (Homo sapiens, PBMC, 6 h) was over 20000 nM.
For the compound `CC(C)c1nn(CC(=O)Nc2ccc3cncn3c2)c(=O)c2ccc(Cl)cc12` [X-1030], the IC50 in the assay on IL-1β (Homo sapiens, PBMC, 6 h) came to 436 nM. In the assay on TNF (Homo sapiens, PBMC, 6 h), the EC50 is over 20000 nM.
The matching figures for `CC(C)c1nn(CC(=O)Nc2ccc3c(c2)[nH]c(=O)n3C)c(=O)c2ccc(Br)cc12` [X-1031]: 30 nM and 4640 nM.

The values above are taken from patent publication US20230202989A1, “COMPOUNDS” (JANSSEN PHARMACEUTICA NV, priority 2020, published 2023).
